Measured values published in US5981517A, “Androstene derivatives” (priority 1997, dated 1999).

Key:
thymi = tested on: thymi; parameters: species or system male Sprague-Dawley rats; conditions: rat, in vivo, sc
Method: Several further studies were undertaken to determine the effects of a selected compound of the invention and prior art steroids on thymi weights in rats when the drugs were systemically administered. In each of these studies, male Sprague-Dawley rats were used. The test compounds were suspended in 0.5% CMC (carboxymethylcellulose) and injected subcutaneously once daily for three days. On the fifth day (48 hours following the last treatment), the animals were sacrificed and the thymi weights were recorded. Body weight gains were measured 24 hours after the last treatment. From the test results, the TED40 's (thymolytic effective doses, that is, doses required to achieve 40% inhibition of thymi weight) and relative potencies of a representative compound of the invention and reference steroids were calculated. […] It is evident that the higher the inhibition of thymus activity at a given dose, the more toxic the compound is.

granuloma / thymolysis = assay: Comparison of local effect and systemic side-effects (therapeutic index); format: in vivo, rat; conditions: granuloma relative potency / thymolysis relative potency
Method: The test compound was dissolved in acetone and aliquots of varying concentrations were injected into cotton pellets. The pellets were dried and then one pellet was implanted beneath the skin of each test rat. Six days later, the animals were sacrificed and the granulation tissue (granuloma) which formed in and around the implanted pellet was removed, dried and weighed. In addition, the thymi and adrenals were removed and weighed.
Several further studies were undertaken to determine the effects of a selected compound of the invention and prior art steroids on thymi weights in rats when the drugs were systemically administered. In each of these studies, male Sprague-Dawley rats were used. The test compounds were suspended in 0.5% CMC (carboxymethylcellulose) and injected subcutaneously once daily for three days. On the fifth day (48 hours following the last treatment), the animals were sacrificed and the thymi weights were recorded. Body weight gains were measured 24 hours after the last treatment.
The ED50 's calculated for the local cotton pellet granuloma assay and the TED40 's calculated on the basis of thymus inhibition testing as described above were used to arrive at relative potency and a therapeutic index for a representative species of the invention as compared to prior art steroids.

skin = assay: Skin weight test, 10 days of topical treatment in the rat; format: in vivo, Male Sprague-Dawley rats; conditions: rat, in vivo
Method: Male Sprague-Dawley rats, weighing about 210 g, were lightly anesthetized with ether, shaved and marked in three areas on each flank with intradermally injected blue ink. […] Treated control animals received daily topical administration of the vehicle (DMF) alone. Solvent and test compound solutions (10 μL) were applied once daily for 10 consecutive days, with […] necessary. On the eleventh day, the animals were sacrificed, their skins were removed and 16 mm diameter plugs were punched out from each area. The plugs were scraped carefully to remove subcutaneous fat and muscle, then they were blotted on filter paper and weighed. Skin atrophy is a known side effect associated with topically applied anti-inflammatory steroids.

[1] = tested on: granulation tissue (granuloma); format: in vivo, rat
Method: The test compound was dissolved in acetone and aliquots of varying concentrations were injected into cotton pellets. The pellets were dried and then one pellet was implanted beneath the skin of each test rat. Six days later, the animals were sacrificed and the granulation tissue (granuloma) which formed in and around the implanted pellet was removed, dried and weighed. In addition, the thymi and adrenals were removed and weighed. The ability of a compound to inhibit granuloma formation in this test is a direct indication of local anti-inflammatory activity; thus, the lower the weight of granulation tissue, the better the anti-inflammatory activity.

[2] = tested on: right ear of each mouse (croton oil challenge); assay: Ear edema test (croton oil, mice); format: in vivo; conditions: 6 h after croton oil challenge
Method: In treatment groups of mice, selected amounts of the test compound were dissolved in acetone containing 5% croton oil; then, 50 microliters of the solution were applied to the inner surface of the right ear of each mouse. A control group of mice was identically treated with vehicle only, i.e., 5% croton oil in acetone. Six hours after croton oil challenge, the thickness of each ear was measured.

| Structure (SMILES) | Thymolysis, Relative Potency at ED40 Level (b) (thymi) | Therapeutic Index (a/b) (granuloma / thymolysis) | Wet skin weight, Treated, Decrease (skin) | Wet skin weight, Untreated, Decrease (skin) | local anti-inflammatory activity (inhibition of granuloma formation) ([1]; cotton pellet, 6 days) | systemic effect ([1]; rat, in vivo) | inhibition of swelling ([2]; 10 μg/mL) | inhibition of swelling ([2]; 100 μg/mL) |
| --- | --- | --- | --- | --- | --- | --- | --- | --- |
| CCCCC(=O)O[C@]1(C(=O)CO)[C@@H](C)C[C@H]2[C@@H]3CCC4=CC(=O)C=C[C@]4(C)[C@@]3(F)[C@@H](O)C[C@@]21C [Betamethasone 17-valerate, reference compound] | 100 | 1.0 |  |  |  |  |  |  |
| COC(=O)[C@@]1(OC(=O)C(Cl)Cl)[C@H](C)C[C@H]2[C@@H]3CCC4=CC(=O)C=C[C@]4(C)[C@@]3(F)[C@@H](O)C[C@@]21C [Compound I, methyl 17α-dichloroacetoxy-9α-fluoro-11β-hydroxy-16α-methylandrosta-1,4-dien-3-one-17β-carboxylate] | 156 | 7.10 | 11.6% | 11.2% | significant local anti-inflammatory activity | relatively much lower systemic effect | 37.4% | 92.1% |
